The values below are quoted from earlier work in article PMC8463260 (Acta Pharmaceutica Sinica. B, 2020).

The conditions of series [1]: in vitro bioactivity compared to native insulin; ref [26],[28]-[31].
The conditions of series [2]: multimerization and serum albumin association; ref [5],[6].

Take insulin degludec: the “in vitro potency, fold lower vs native insulin” value in series [1] is listed as 6–8 fold.

For the substance “insulin detemir: long-acting insulin derivative with hydrophobic modification on B29 lysine”, the in vivo half-life in series [2] was 20 to 48 h.
